Reference: ChEMBL document CHEMBL4732209, “Indole scaffolds as a promising class of the aryl hydrocarbon receptor ligands” (Eur J Med Chem, 2021)

How the values were obtained:
[1] = target: T1, Aryl hydrocarbon receptor (Homo sapiens, UniProt P35869); assay: Agonist activity at AHR in human HepG2 cells incubated for 4.5 hrs by Luciferase reporter assay; type: cell-based
T1 sequence (P35869 whole entry): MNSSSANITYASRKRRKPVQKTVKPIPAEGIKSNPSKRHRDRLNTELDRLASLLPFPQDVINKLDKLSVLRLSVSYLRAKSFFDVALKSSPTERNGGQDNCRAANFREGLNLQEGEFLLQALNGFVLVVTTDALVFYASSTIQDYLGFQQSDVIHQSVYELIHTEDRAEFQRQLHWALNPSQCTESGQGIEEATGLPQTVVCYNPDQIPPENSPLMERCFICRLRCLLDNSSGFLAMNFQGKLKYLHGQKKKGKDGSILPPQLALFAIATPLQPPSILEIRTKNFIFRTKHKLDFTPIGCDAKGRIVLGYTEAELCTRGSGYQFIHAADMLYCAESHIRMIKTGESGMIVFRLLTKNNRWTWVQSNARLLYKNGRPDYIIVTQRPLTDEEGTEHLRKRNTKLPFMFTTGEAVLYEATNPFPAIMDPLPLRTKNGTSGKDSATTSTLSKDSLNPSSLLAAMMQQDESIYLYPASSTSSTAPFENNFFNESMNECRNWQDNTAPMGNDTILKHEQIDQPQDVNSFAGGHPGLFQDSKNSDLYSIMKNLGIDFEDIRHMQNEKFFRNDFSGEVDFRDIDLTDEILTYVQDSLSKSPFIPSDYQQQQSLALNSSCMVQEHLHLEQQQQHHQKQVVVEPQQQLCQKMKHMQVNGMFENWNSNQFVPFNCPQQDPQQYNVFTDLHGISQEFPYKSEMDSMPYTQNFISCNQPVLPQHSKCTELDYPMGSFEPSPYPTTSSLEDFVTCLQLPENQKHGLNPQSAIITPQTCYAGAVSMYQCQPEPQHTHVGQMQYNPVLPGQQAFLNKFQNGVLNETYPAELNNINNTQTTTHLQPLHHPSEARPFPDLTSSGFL

[2] = target: T1, Aryl hydrocarbon receptor; assay: Agonist activity at AHR in human AZ-AHR stable HepG2 cells by Luciferase reporter assay
[3] = target: T1, Aryl hydrocarbon receptor; assay: Agonist activity at AHR in human MDA-MB-468 cells incubated for 24 hrs by Western blot analysis; type: cell-based

| EC50 [1] [nM] | EC50 [2] [nM] | Structure (SMILES) | EC50 [3] [nM] |
| --- | --- | --- | --- |
| 2 | – | O=C(c1cccc(C(F)(F)F)n1)c1c[nH]c2ccccc12 | – |
| – | 1600 | OC(c1ccncc1)(c1cc2ccccc2[nH]1)c1cc2ccccc2[nH]1 | – |
| 2 | – | N#Cc1cccc(C(=O)c2c[nH]c3ccccc23)n1 | – |
| – | – | Brc1c(Br)c(Br)c2c([nH]c3c(Br)c(Br)c(Br)c(Br)c32)c1Br | < 1000 |
| – | – | Clc1c(Cl)c(Cl)c2c([nH]c3c(Cl)c(Cl)c(Cl)c(Cl)c32)c1Cl | < 1000 |
| – | 1600 | CCOn1c(C(O)(c2ccncc2)c2cc3ccccc3[nH]2)cc2ccccc21 (stereo unspecified) | – |
